Values quoted from earlier work, collected in patent US20070167517A1, “Stabilized derivatives of ascorbic aicd” (Tagra Biotechnologies Ltd., priority 2003, published 2007).

Experiments:
[1] = in the human
[2] = standard solutions and topical formulations, RP-HPLC

O=C1O[C@H]([C@@H](O)CO)C(O)=C1O [ascorbic acid]
half-life [1]: about 20 days

CCCCCCCCCCCCCCCC(=O)OC[C@H](O)[C@H]1OC(=O)C(O)=C1O [ascorbyl palmitate, 6-ascorbyl palmitate]
stability [2]: did not prevent hydrolysis of the molecule

O=C1O[C@H]([C@@H](O)CO)C(O)=C1OP(=O)([O-])[O-].[Mg+2] [magnesium ascorbyl phosphate, magnesium L-ascorbic acid-2-phosphate]
stability [2]: very stable
